In patent US20150335678A1, “METHOD OF ACTIVATING STEM CELLS IN AN ANIMAL AND THE USE OF CHLORINE DIOXIDE FOR PREPARING MEDICINES FOR ACTIVATING STEM CELLS IN AN ANIMAL” (priority 2012, published 2015):
Marks after values point to notes of the source that are not given here.

Legend:
[1] = system: VE cadherin-positive mononuclear cells; experiment: VE cadherin-positive mononuclear cells in peripheral blood of lower limb DVT patients, flow cytometry; format: in vivo, human; details: before administration 0.44 ± 0.70, diluted solution 10 ml/body/day femoral artery puncture, 14 days
From the text: The subjects consisted of 14 male and 6 female lower limb DVT patients with the unilateral limb suffer from the illness, aged from 59 to 76 years old (average age: 67.2 years old). The purpose of the clinical test was explained to all subjects and their consent was obtained before conducting the clinical test.
The first solution was a mixed solution made of sodium chlorite with the concentration of 7.47% and sodium chloride with the concentration of 1.59% with deionized water; the second solution was made of citric acid with the concentration of 16.7% with deionized water. Same volume of solutions were taken out from different vessels with different volumes and mixed up. […]
Five ml of peripheral blood was collected from the median cubital vein of the forearm of each patient using low molecular weight heparin anticoagulant before administration (before initial administration) and on day 7 and 14 after administration, and the collected blood was immediately stored at 4° C. and measured within 6 hours after collection. […]
VE Cadherin-positive mononuclear cells were isolated by immunofluorescent stain using flow cytometry. […] Next, VE cadherin-positive mononuclear cells were isolated and counted by flow cytometry. The ratio (%) of VE cadherin-positive mononuclear cells among the mononuclear cells was calculated according to the following formula. […]

[2] = system: cerebral ischemia/reperfusion injury model rats; experiment: Neural function score in cerebral ischemia/reperfusion injury model (Example 3); format: in vivo, Sprague-Dawley rats; details: for neural function score (median): n=15, scale 0 normal to 5
Procedure: Male Sprague-Dawley rats with the age of 12 weeks and weight of 250^˜280 g were used in the experiment after acclimating for a week.
A middle cerebral artery occlusion model was first established in compliance with the method of Longa E Z et al. (Longa E Z, et al. Reversible middle cerebral artery occlusion without craniectomy in rats. Stroke 20:84-91, 1989). More specifically, 0.36 g/kg of 10% chloral hydrate was administered intraperitoneally to rats which had been fasted for 12 hours (although given free access to water) to anesthetize the rats. Next, a midline incision was made in the neck to expose the right common carotid artery. Then, the internal carotid artery and external carotid artery were separated, the posterior carotid artery, which is a branch of the external carotid artery, and the thyroidea arteria were coagulated and severed, the external carotid artery was ligated at the branch of the lingual artery and maxillary artery, a small puncture was formed in the external carotid artery, 4-0 Nylon suture was passed through the common carotid artery from the puncture, and gradually inserted into the internal carotid artery until there was resistance. The length of the Nylon suture was about 18^˜20 mm from the branch of the common carotid artery. As a result of occluding the middle cerebral artery with Nylon suture, an ischemic state was applied for 2 hours to create a middle cerebral artery occlusion model.
A cerebral ischemia/reperfusion injury model was established by removing the Nylon suture from the middle cerebral artery of the occlusion model and following reperfusion of blood.
The first solution was a mixed solution made of sodium chlorite with the concentration of 7.47% and sodium chloride with the concentration of 1.59% with deionized water; the second solution was made of citric acid with the concentration of 16.7% with deionized water. Same volume of solutions were taken out from different vessels with different volumes and mixed up. Allow the solution to mix for 3-5 minutes and dilute it five times with normal saline, and then filter it with 0.22 μm filter membrane of double-deck. The solution was immediately put into injector. The solution was prepared once being used.
Treatment group (120 rats): A cerebral ischemia/reperfusion injury model was established for the rats already. To administer chlorine dioxide solution everytime that prepared from procedure (3) through carotid artery after the second day the model has established, once a day for total ten days.
Neural function scores were evaluated once a day after the ischemia/reperfusion injury model established in the 15 rats per group. The scores of neural function disorders were evaluated using the following criteria in compliance with the method of Longa E Z (Longa E Z, et al. Reversible middle cerebral artery occlusion without craniectomy in rats. Stroke 20:84-91, 1989). The results were shown as median.
1: Contralateral limb bending on infarction focus
2: Contralateral limb on infarction focus becomes asthenic state when tail is pulled backward
3: Turning toward opposite side of infarction focus when tail is pulled
4: Spontaneous turning towards opposite side of infarction focus
5: Loss of spontaneous movement

[3] = system: rat model of type II diabetes mellitus; experiment: Fasting blood-glucose in rat model of type II diabetes mellitus (Example 10); format: in vivo
Procedure: The rat models of type II diabetes mellitus bought from Department of Medicine of Peking University were divided into group A and B randomly with 10 rats for each group. Group A was treatment group of activating agent of stem cells. Group B was control group of 0.9% sodium chloride of the same volume. The rats of group A were injected with 0.5 ml activating agent of stem cells at insulin injection site on day 0, same dosage of medicine were injected on day 7, day 14; The rats of group B were injected with 0.5 ml NS at hepatic artery at the same point-in-time, then calculate the blood sugar. The fasting blood-glucose of the rat model was checked on day 7, day 14, day 21 and day 28 respectively after the last injection. Table 20 is the results.

Helicobacter pylori = experiment: hp-positive gastric ulcer patients: HP negative conversing, rapid urease test; format: in vivo, human; details: 30 patients per group
Procedure: The subjects consisted of 90 gastric ulcer patients (50 male and 40 female) of hp-positive aged from 33 to 75 years old (average age: 41 years old). The subjects were randomly assigned to treatment group and control group with 30 patients in treatment group and 30 in control group 1 and 30 in control group 2 respectively.
Allow the solution to mix for 3-5 minutes. The capsule that containing activating agent of stem cells was made by injecting the mixed solution into the soft capsule of number 0.
The capsule that containing activating agent of stem cells was administered to the patients in treatment group three times a day and a pill each time; 30 minutes before meals, patients in control group 1 took orally 15 mg colloidal bismuth and 100 mg pectin tinidazole for three times a day. And 20 mg Omeprazole two times a day; patients in control group 2 took orally […] amoxicillin and 500 mg clindamycin three times a day and 20 mg esomeprazole twice a day before meals. Both groups were administered for a consecutive week. To observe the improvement of the clinical symptoms of the three cases two weeks after administration, such as stomachache, nausea and sour regurgitation. […]
Criteria for measuring the effects: the changes of conditions before and after treatment and the time the symptoms disappear were recorded precisely. […]

[O][Cl+][O-] [chlorine dioxide solution, chlorine dioxide]
VE Cadherin-Positive Mononuclear Cells (ratio among mononuclear cells, mean±SD) ([1]; Day 7 after administration, n=20): 1.5 ± 1.11 %
VE Cadherin-Positive Mononuclear Cells (ratio among mononuclear cells, mean±SD) ([1]; Day 14 after administration, n=15): 1.91 ± 1.65 %
neural function score (median) ([2]; Day 1, model group 3, NaClO2 7.47% + citric acid 16.7% 1:1 diluted five times, carotid artery once a day for ten days after the second day): 3
neural function score (median) ([2]; Day 2, model group 3, diluted solution via carotid artery once a day for ten days after the second day): 3
neural function score (median) ([2]; Day 3, model group 3, diluted solution via carotid artery once a day for ten days after the second day): 2
neural function score (median) ([2]; Day 4, model group 2, diluted solution via carotid artery once a day for ten days after the second day): 2
neural function score (median) ([2]; Day 5, model group 2, diluted solution via carotid artery once a day for ten days after the second day): 1
neural function score (median) ([2]; Day 6, model group 2, diluted solution via carotid artery once a day for ten days after the second day): 1
neural function score (median) ([2]; Day 7, model group 2, diluted solution via carotid artery once a day for ten days after the second day): 1
neural function score (median) ([2]; Day 8, model group 2, diluted solution via carotid artery once a day for ten days after the second day): 0
neural function score (median) ([2]; Day 9, model group 1, diluted solution via carotid artery once a day for ten days after the second day): 0
neural function score (median) ([2]; Day 10, model group 1, diluted solution via carotid artery once a day for ten days after the second day): 0
neural function score (median) ([2]; Day 11, model group 1, diluted solution via carotid artery once a day for ten days after the second day): 0
neural function score (median) ([2]; Day 12, model group 1, diluted solution via carotid artery once a day for ten days after the second day): 0
neural function score (median) ([2]; Day 13, model group 1, diluted solution via carotid artery once a day for ten days after the second day): 0
neural function score (median) ([2]; Day 14, model group 1, diluted solution via carotid artery once a day for ten days after the second day): 0
neural function score (median) ([2]; Day 15, model group 1, diluted solution via carotid artery once a day for ten days after the second day): 0
neural function score (median) ([2]; Day 16, model group 1, diluted solution via carotid artery once a day for ten days after the second day): 0
neural function score (median) ([2]; Day 17, model group 1, diluted solution via carotid artery once a day for ten days after the second day): 0
neural function score (median) ([2]; Day 18, model group 1, diluted solution via carotid artery once a day for ten days after the second day): 0
neural function score (median) ([2]; Day 19, model group 1, diluted solution via carotid artery once a day for ten days after the second day): 0
neural function score (median) ([2]; Day 20, model group 1, diluted solution via carotid artery once a day for ten days after the second day): 0
neural function score (median) ([2]; Day 21, model group 1, diluted solution via carotid artery once a day for ten days after the second day): 0**
onset of recovery of neural function, treatment group vs model group ([2]; significant particularly on day 7, 8, 9 and 16 after operation): earlier than that in the model group
MBG (fasting blood-glucose), ±SD ([3]; Day 7 after administration, Group A n=10, Day 0 17.3 ± 0.4, NS group 18.3 ± 2.4, NaClO2 4%/NaCl 1% + citric acid 8% 1:1, 0.5 ml injected day 0, 7, 14): 9.3 ± 3.5 mmol/L
MBG (fasting blood-glucose), ±SD ([3]; Day 14 after administration, Day 0 17.3 ± 0.4, NS group 17.2 ± 1.6, 0.5 ml injected day 0, 7, 14): 4.3 ± 1.1 mmol/L
MBG (fasting blood-glucose), ±SD ([3]; Day 28 after administration, Day 0 17.3 ± 0.4, NS group 17.9 ± 2.3, 0.5 ml injected day 0, 7, 14): 3.1 ± 1.2 mmol/L
FBG levels of rats in treatment group ([3]; control group remains unchanged): become normal after 14 days
side effects ([3]; rat model of type II diabetes mellitus): few or no side effects
MBG (fasting blood-glucose), ±SD ([3]; rat, in vivo): 3.5 ± 1.3 mmol/L
HP negative conversing (%) (Helicobacter pylori; rapid urease test after 30 days): 96.6%
HP negative conversing (No.) (Helicobacter pylori; rapid urease test of gastric mucosa after 30 days): 29
